From ChEMBL document CHEMBL5729088, “Thienodiazepine derivatives and application thereof” (2022) come the findings set out here.

A word on the IC50: it is the concentration at which inhibition is half-maximal. The low end stands for greater potency, the high end for weaker potency.

For assay [1], the target named is T1, Bromodomain-containing protein 4 (Homo sapiens, UniProt O60885). Put plainly: (§1) BRD4 Biochemical Activity Test: The experiment plate was a plate that contained a gradient concentration of the compound and a corresponding DMSO solution and was prepared with ECHO before the experiment:a) The experiment plate was taken out, and 5 μL/well of “solution A” (protein solution) was added to columns 2-23 of the experiment plate, then 5 μL/well of 1× assay buffer was added to columns 1 and 24 of the experiment plate, and columns 1 and 24 were used as Min control in the experiment system;b) Centrifugation at 1000 rpm was carried out for 30 seconds;c) The plate was incubated at 23° C. for 20 minutes;d) After 20 minutes of incubation, 5 μL/well of “solution B” (polypeptide solution) was added to columns 1-24 of the experiment plate;e) Centrifugation at 1000 rpm was carried out for 30 seconds;f) The plate was incubated at 23° C. for 20 minutes;g) After 20 minutes of incubation, 5 μL/well of “solution C” (test reagent solution) was added to columns 1-24 of the experiment plate;h) Centrifugation at 1000 rpm was carried out for 30 seconds;i) The plate was incubated at 23° C. for 40 minutes;j) The experiment plate was placed on EnVision to read the plate.

The target of assay [2] is T1, Bromodomain-containing protein 4. The assay is described as §1. The source holds these as a separate data set.

As for `Cc1sc2c(c1C)C(c1ccc(Cl)cc1)=N[C@@H](CC(=O)Nc1ccc(O)c3c1COC3)c1nnc(C)n1-2`, the IC50 in assay [1] is 100 nM; in assay [2] it was 21 nM.

As to `Cc1sc2c(c1C)C(c1ccc(Cl)cc1)=N[C@@H](CC(=O)Nc1ccc3c(c1)CS(=O)(=O)C3)c1nnc(C)n1-2`, the IC50 was 49 nM in assay [1] and 14 nM in assay [2].
